The record followed here is US20230286930A1, “N -SUBSTITUTED 4-(1,3-ARYLOXAZOLO-2-YL)PHENYL COMPOUNDS FOR THE TREATMENT AND PROPHYLAXIS OF HEPATITIS B VIRUS INFECTION” (Hoffmann-La Roche Inc., priority 2020, published 2023).

Series [1] can be described thus: PHH natural infection assay, cytotoxicity (Cell Counting Kit-8). Particulars: human. Type of series: cell-based. As to the method:
(§1) Detailed procedures regarding primary human hepatocyte (PHH) HBV natural infection assay are described as below. One tube of frozen PHH (10 million cells) is thawed in 37° C. water bath and then transferred to 20 mL of PHH thawing medium (Sigma, InVitroGRO HT Medium, Cat. S03319) with gently mixing. The cells were then centrifuged at […] for 5 min, the supernatant was discarded and the tube was refilled with 25 mL of PHH plating medium (Sigma, InVitroGRO CP Medium, Cat. S03317). The tube was shaken very gently to re-suspend all cells, and then 50 μL of cells were transferred to each well 384-well collagen I coated plate with appropriate liquid handling equipment, e.g. Integra VIAFLO384 or Agilent Bravo. The cells were then cultured for 24 hours in a cell incubator. For HBV infection, after PHH attachment on the culture plate, the plating medium was removed and replenished with PHH culture medium containing HBV virus. The PHH culture medium was prepared with Dulbecco's Modified Eagle Medium (DMEM)/F12 (1:1 in volume ratio) containing 10% fetal bovine serum (Gibco, Cat. 10099141), 5 ng/mL human epidermal growth factor (Gibco, Cat.PHG0311L), 20 ng/mL dexamethasone (Sigma, Cat.D4902-100 mg), 250 ng/mL human recombinant insulin (Gibco, Cat.41400045) and 100 U/mL penicillin. HBV virus at 200 genome equivalent (GE) per cell with 4% PEG8000 (Sigma, Cat.P1458) containing culture medium were added to the PHH culture medium for infection. The cells were then cultured for 24 hours in cell incubator. Then the cell culture supernatant was removed. The HBV-infected PHH were cultured with sandwich culture method with PHH culture medium containing 1% DMSO and 0.25 mg/mL matrix gel for 72 hours. The supernatant was then refreshed with PHH culture medium containing different concentrations of testing compounds for two times with 72-hour interval. At the end of treatment, the supernatant was collected for viral markers measurements, including HBsAg, HBeAg, HBV DNA and cytotoxicity. HBsAg and HBeAg were detected using alphalisa method using their specific antibodies. For HBV DNA detection, HBV DNA Quantitative Fluorescence Diagnostic Kit (Sansure Biotech Inc.) was used following the manufacture's protocol. Cytotoxicity was determined using Cell Counting Kit-8 (CCK8, Dojindo Molecular Technologies, Inc.).
On the technique in general: Formazan colour is commonly taken as a measure of viable cells.

Series [2] relates to HBsAg. Briefly: PHH natural infection assay, HBsAg (alphalisa). Type of series: cell-based, HBV. Particulars: Hepatitis B virus, read-out: HBsAg IC50. As to the method:
as §1
(§2) The compounds of the present invention were tested for their capacity to inhibit HBsAg and HBeAg as described herein.
In general terms: Alpha assays give light when donor and acceptor beads are brought close together.

The subject of series [3] is HBeAg. Briefly: PHH natural infection assay, HBeAg (alphalisa). Type of series: cell-based, HBV. Particulars: Hepatitis B virus, read-out: HBeAg IC50. The method, then:
as §1, §2

Some results are limits rather than exact numbers.

In series [1], `O=C(Nc1ccc(-c2nc3c(F)cccc3o2)cc1)C1CCS(=O)(=O)C1` (stereo not drawn) [Example 50, N-[4-(4-fluoro-1,3-benzoxazol-2-yl)phenyl]-1,1-dioxo-thiolane-3-carboxamide] returned a CC50 at 144 h above 100 µM. Also, the IC50 was 1.2 µM in series [2] and 1.51 µM in series [3].
In series [1], `CC1(C(=O)Nc2ccc(-c3nc4c(F)cccc4o3)cc2)COC1` [Example 51, N-[4-(4-fluoro-1,3-benzoxazol-2-yl)phenyl]-3-methyl-oxetane-3-carboxamide] came in with a CC50 at 144 h above 100 µM. Moreover, the figures for the IC50 in series [2] and in series [3] were 1.16 µM and 1.23 µM, respectively.
For `CC(O)C(=O)Nc1ccc(-c2nc3c(F)cccc3o2)cc1` (stereo not drawn) [Example 52, N-[4-(4-fluoro-1,3-benzoxazol-2-yl)phenyl]-2-hydroxy-propanamide] the same measures were above 100 µM, 1.72 µM and 1.78 µM.
For `CC(C)(C)C(=O)Nc1ccc(-c2nc3c(F)cccc3o2)cc1` [Example 53, N-[4-(4-fluoro-1,3-benzoxazol-2-yl)phenyl]-2,2-dimethyl-propanamide] the same measures were above 100 µM, 1.43 µM and 1.17 µM.
Compound `O=C(Nc1ccc(-c2nc3c(F)cccc3o2)cc1)C1CCOC1` (stereo not drawn) [Example 54, N-[4-(4-fluoro-1,3-benzoxazol-2-yl)phenyl]tetrahydrofuran-3-carboxamide] showed a CC50 at 144 h in series [1] above 100 µM. Moreover, the 50% inhibitory concentration (IC50) in series [2] is 2.68 µM; in series [3] it was 2.83 µM.
With `O=C(Nc1ccc(-c2nc3c(F)cccc3o2)cc1)C1CCS(=O)(=O)CC1` [Example 55, N-[4-(4-fluoro-1,3-benzoxazol-2-yl)phenyl]-1,1-dioxo-thiane-4-carboxamide], in series [1], the CC50 at 144 h is above 100 µM. Besides, the figures for the IC50 in series [2] and in series [3] were 2.96 µM and 2.8 µM, respectively.
For `CC1(C(=O)Nc2ccc(-c3nc4c(F)cccc4o3)cc2)CC(=O)C1` [Example 56, N-[4-(4-fluoro-1,3-benzoxazol-2-yl)phenyl]-1-methyl-3-oxo-cyclobutanecarboxamide] the same measures were above 100 µM, 3.39 µM and 4.3 µM.
For `O=C(Nc1ccc(-c2nc3c(F)cccc3o2)cc1)C1CS(=O)(=O)C1` [Example 57, N-[4-(4-fluoro-1,3-benzoxazol-2-yl)phenyl]-1,1-dioxo-thietane-3-carboxamide] the same measures were above 100 µM, 8.19 µM and 9.08 µM.
The matching figures for `COC(=O)Nc1ccc(-c2nc3c(F)cccc3o2)cc1` [Example 58, methyl N-[4-(4-fluoro-1,3-benzoxazol-2-yl)phenyl]carbamate]: above 100 µM, 5.96 µM and 8.77 µM.
For the compound `CCOC(=O)Nc1ccc(-c2nc3c(F)cccc3o2)cc1` [Example 59, ethyl N-[4-(4-fluoro-1,3-benzoxazol-2-yl)phenyl]carbamate], the CC50 at 144 h in series [1] is above 100 µM. Further, the IC50 in series [2] stood at 1.64 µM; in series [3], 1.57 µM.
For `CC(C)OC(=O)Nc1ccc(-c2nc3c(F)cccc3o2)cc1` [Example 60, isopropyl N-[4-(4-fluoro-1,3-benzoxazol-2-yl)phenyl]carbamate] the same measures were above 100 µM, 5.04 µM and 3 µM.
For `CC(C)(C)C(=O)Nc1ccc(-c2nc3cccnc3o2)cc1` [Example 61, 2,2-dimethyl-N-(4-oxazolo[5,4-b]pyridin-2-ylphenyl)propanamide] the same measures were above 100 µM, 1.5 µM and 1.55 µM.
For `COC(C)C(=O)Nc1ccc(-c2nc3cccnc3o2)cc1` (stereo not drawn) [Example 62, 2-methoxy-N-(4-oxazolo[5,4-b]pyridin-2-ylphenyl)propanamide] the same measures were above 100 µM, 1.61 µM and 3.29 µM.
`O=C(Nc1ccc(-c2nc3cccnc3o2)cc1)C1CCS(=O)(=O)C1` (stereo not drawn) [Example 63, N-(4-oxazolo[5,4-b]pyridin-2-ylphenyl)-1,1-dioxo-thiolane-3-carboxamide]: the CC50 at 144 h in series [1] was above 100 µM. The concentration for half-maximal inhibition (IC50) in series [2] was determined as 2.53 µM; in series [3] it was 4.83 µM.
The matching figures for `CC1(C(=O)Nc2ccc(-c3nc4cccnc4o3)cc2)CCOC1` (stereo not drawn) [Example 64, 3-methyl-N-(4-oxazolo[5,4-b]pyridin-2-ylphenyl)tetrahydrofuran-3-carboxamide]: above 100 µM, 2.76 µM and 3.56 µM.
The matching figures for `CC1(C(=O)Nc2ccc(-c3nc4cccnc4o3)cc2)COC1` [Example 65, 3-methyl-N-(4-oxazolo[5,4-b]pyridin-2-ylphenyl)oxetane-3-carboxamide]: above 100 µM, 2.73 µM and 2.2 µM.
The matching figures for `O=C(Nc1ccc(-c2nc3cccnc3o2)cc1)C1CCS(=O)(=O)CC1` [Example 66, N-(4-oxazolo[5,4-b]pyridin-2-ylphenyl)-1,1-dioxo-thiane-4-carboxamide]: above 100 µM, 3.9 µM and 6.11 µM.
For `O=C(Nc1ccc(-c2nc3cccnc3o2)cc1)C1CCOC1` (stereo not drawn) [Example 67, N-(4-oxazolo[5,4-b]pyridin-2-ylphenyl)tetrahydrofuran-3-carboxamide], the CC50 at 144 h in series [1] is above 100 µM. In addition, the IC50 stood at 3.08 µM in series [2] and 3.3 µM in series [3].
The matching figures for `O=C(Nc1ccc(-c2nc3cccnc3o2)cc1)C1COC1` [Example 68, N-(4-oxazolo[5,4-b]pyridin-2-ylphenyl)oxetane-3-carboxamide]: above 100 µM, 4.51 µM and 4.22 µM.
For `O=C(Nc1ccc(-c2nc3c(F)c(F)ccc3o2)cc1)C1CCOC1` (stereo not drawn) [Example 69, N-[4-(4,5-difluoro-1,3-benzoxazol-2-yl)phenyl]tetrahydrofuran-3-carboxamide] the same measures were above 100 µM, 1.49 µM and 2.1 µM.
Regarding `O=C(Nc1ccc(-c2nc3cc(F)cc(F)c3o2)cc1)C1CCOC1` (stereo not drawn) [Example 70, N-[4-(5,7-difluoro-1,3-benzoxazol-2-yl)phenyl]tetrahydrofuran-3-carboxamide], in series [1], the CC50 at 144 h is above 100 µM. Moreover, the figures for the IC50 in series [2] and in series [3] were 1.75 µM and 2.46 µM, respectively.
For `Cc1ccc2nc(-c3ccc(NC(=O)C4CCOC4)cc3)oc2n1` (stereo not drawn) [Example 71, N-[4-(5-methyloxazolo[5,4-b]pyridin-2-yl)phenyl]tetrahydrofuran-3-carboxamide] the same measures were above 100 µM, 9.29 µM and 17.5 µM.
In turn, `COc1ccc2nc(-c3ccc(NC(=O)C4CCOC4)cc3)oc2n1` (stereo not drawn) [Example 72, N-[4-(5-methoxyoxazolo[5,4-b]pyridin-2-yl)phenyl]tetrahydrofuran-3-carboxamide] showed a half-maximal cytotoxic concentration (CC50) at 144 h in series [1] above 100 µM. The concentration for half-maximal inhibition (IC50) in series [2] is 2.22 µM; in series [3] it was 2.61 µM.
The matching figures for `O=C(Nc1ccc(-c2nc3cc(Cl)ccc3o2)cc1)c1ncco1` [Example 73, N-[4-(5-chloro-1,3-benzoxazol-2-yl)phenyl]oxazole-2-carboxamide]: above 100 µM, 1.78 µM and 2.05 µM.

As usually defined, the CC50 is the concentration at which the toxic effect on the cells reaches its halfway point. Read a low CC50 as harm at low concentration. One may read the IC50 as the concentration that inhibits the measured activity by half.
